In PubChem BioAssay (NCI):
Values joined by “and” are separate entries in the source; they are usually repeats but may differ in a detail not shown here. Equal values may be shown once.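 How tested: cells in 96-well plates exposed to compound for 48 hours at five concentrations. The concentration for 50% growth inhibition is given as GI50. TGI is the concentration that stops growth completely.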

Key:
Assay in all cases: inhibition of tumour cell growth, NCI panel, 48 h
IGROV1 ovarian = test system: IGROV1 ovarian
SNB-75 CNS = test system: SNB-75 CNS
HT29 colon = test system: HT29 colon
OVCAR-3 ovarian = test system: OVCAR-3 ovarian
COLO 205 colon = test system: COLO 205 colon
NCI-H522 lung = test system: NCI-H522 lung
EKVX NSCLC = test system: EKVX NSCLC
OVCAR-5 ovarian = test system: OVCAR-5 ovarian
NCI/ADR-RES ovarian = test system: NCI/ADR-RES ovarian
SN12C renal = test system: SN12C renal

Compound	TGI (IGROV1 ovarian)	TGI (SNB-75 CNS)	TGI (HT29 colon)	TGI (OVCAR-3 ovarian)	TGI (COLO 205 colon)	TGI (NCI-H522 lung)	TGI (EKVX NSCLC)	TGI (OVCAR-5 ovarian)	TGI (NCI/ADR-RES ovarian)	TGI (SN12C renal)	GI50 (IGROV1 ovarian)	GI50 (SNB-75 CNS)	GI50 (HT29 colon)	GI50 (OVCAR-3 ovarian)	GI50 (COLO 205 colon)	GI50 (NCI-H522 lung)	GI50 (EKVX NSCLC)	GI50 (OVCAR-5 ovarian)	GI50 (NCI/ADR-RES ovarian)	GI50 (SN12C renal)
CN(Cc1ccccc1)Cn1ccnc1	> 100 µM	> 100 µM	> 100 µM	> 100 µM	> 86.7 µM	> 100 µM	> 100 µM	> 100 µM	> 100 µM	> 100 µM	–	–	–	–	–	–	–	–	–	–
Cc1ccc(O)c(NC(=O)c2cccc(Nc3ccnc(C(F)(F)F)c3)c2)c1	28.1 µM	25.3 µM	33.4 µM	41.6 µM	33.7 µM	5.84 µM	59.4 µM	36 µM	32.4 µM	37.3 µM	12.6 µM	11.4 µM	15.7 µM	15.5 µM	14.6 µM	1.23 µM	3.37 µM	13 µM	3 µM	5.81 µM
OCC1C(OCc2ccccc2)C(OCc2ccccc2)C(OCc2ccccc2)CN1Cc1ccccc1 (stereo not drawn)	> 100 µM	31.2 µM	34.6 µM	> 100 µM	28.4 µM	> 100 µM	> 100 µM	> 100 µM	> 100 µM	39.6 µM	–	–	–	–	–	–	–	–	–	–
COc1c/c(=C2\C=c3ccccc3=N2)[nH]/c1=C\c1[nH]c(C)cc1C	17.7 µM	4.19 µM	> 100 µM	0.202 µM	13.6 µM	> 41.9 µM	> 94.4 µM	> 56.5 µM	> 55.3 µM	59.5 µM	0.102 µM	0.175 µM	< 0.01 µM	< 0.0109 µM	0.0155 µM	0.493 µM	0.601 µM	0.25 µM	0.17 µM	0.0782 µM
Cc1cc2c(C(=O)NC[C@H](C)c3ccccc3)c(O)c(O)cc2c(O)c1-c1c(C)cc2c(C(=O)NC[C@H](C)c3ccccc3)c(O)c(O)cc2c1O	11.3 µM	1.98 µM	11 µM	1.55 µM	5.83 µM	1.18 µM	8.1 µM	5.03 µM	4.3 µM	10.6 µM	0.0909 µM	0.251 µM	0.355 µM	0.306 µM	0.711 µM	0.288 µM	0.411 µM	0.503 µM	0.252 µM	0.436 µM
CN[C@H]1CN(c2ccc3c(=O)c(C(=O)O)cn(-c4nccs4)c3n2)C[C@@H]1OC	7.15 µM	2.55 µM	4.2 µM	6.48 µM	2.66 µM	2.98 µM	7.17 µM	6.45 µM	7.56 µM	5.69 µM	0.353 µM	0.637 µM	1.04 µM	1.82 µM	1.21 µM	0.733 µM	1.97 µM	2.31 µM	1.3 µM	0.364 µM
Cc1cnc2n1S(=O)(=O)c1cc(C(=O)Nc3cccc4nsnc34)c(Cl)cc1S2	> 100 µM	62.3 µM	93.8 µM	30.2 µM	54.6 µM	> 100 µM	> 100 µM	> 100 µM	34.1 µM	58.5 µM	31.2 µM	25.6 µM	32.3 µM	16.2 µM	23 µM	47.6 µM	46.8 µM	54 µM	16.2 µM	25.3 µM
CC(C)(C)C(=O)OCOP(=O)(NCc1ccccc1)C1CCCN(O)C1=O (stereo not drawn)	9.59 µM	39.1 µM	61.9 µM	9 µM	13.7 µM	21.9 µM	78.8 µM	> 100 µM	6.65 µM	9.21 µM	2.91 µM	4.97 µM	3.35 µM	1.04 µM	2.47 µM	1.78 µM	3.91 µM	8.99 µM	2.03 µM	0.752 µM
Oc1ccc(C=Nc2ccccc2O)cc1	> 100 µM	> 100 µM	> 100 µM	> 100 µM	91.7 µM	> 100 µM	> 100 µM	> 100 µM	> 100 µM	> 100 µM	–	–	–	–	–	–	–	–	–	–
COC(COC(N)=O)C1=C(N2CC2)C(=O)C(C)=C(N2CC2)C1=O (stereo not drawn)	0.995 µM	0.322 µM	0.521 µM	0.379 µM	0.389 µM	0.156 µM	1.24 µM	0.71 µM	0.101 µM	1.28 µM	–	–	–	–	–	–	–	–	–	–
O=c1c2c(nc3n1CCS3)[nH]c1cc([N+](=O)[O-])ccc12	> 100 µM	> 100 µM	> 100 µM	81.2 µM	> 100 µM	> 100 µM	> 100 µM	> 100 µM	> 100 µM	> 100 µM	36.2 µM	57.1 µM	> 100 µM	25.5 µM	41.4 µM	> 100 µM	> 100 µM	> 100 µM	> 100 µM	> 100 µM
CC[C@H](C)[C@H](NC(=O)[C@H]1CCCCN1C)C(=O)N(C)[C@H](C[C@@H](OC(C)=O)c1cccc(C(=O)N[C@@H](Cc2ccccc2)C[C@H](C)C(=O)OC)n1)C(C)C	> 25 µM	> 25 µM	0.0421 µM	0.00308 µM and < 0.0025 µM	0.0132 µM and 0.00446 µM	0.00894 µM	> 25 µM	> 25 µM	> 25 µM	> 25 µM	0.000812 µM and 0.00506 µM	0.00366 µM and 0.00479 µM	0.00182 µM and 0.0025 µM	0.000398 µM and < 0.0025 µM	0.00182 µM and 0.0025 µM	0.00154 µM and 0.0025 µM	0.00838 µM and 0.00863 µM	0.0137 µM	0.175 µM and 0.276 µM	0.00567 µM and 0.0113 µM
CC1Cc2c(Cl)ncnc2N(C)c2ccc(Cl)cc21 (stereo not drawn)	> 100 µM	> 100 µM	0.846 µM	0.477 µM	0.369 µM	0.776 µM	9.73 µM	> 100 µM	32.3 µM	19.3 µM	0.468 µM	0.0795 µM	0.232 µM	0.21 µM	0.19 µM	0.232 µM	0.299 µM	0.592 µM	0.333 µM	0.411 µM
COc1cc(/C=C/c2cc(/C=C/c3ccc(O)c(OC)c3)n(C(=O)c3ccc(Cl)cc3)n2)ccc1O	15.4 µM	10.3 µM	> 100 µM	7.72 µM	13.4 µM	4.32 µM	–	18.2 µM	18 µM	13 µM	3.17 µM	1.99 µM	3.42 µM	2.67 µM	3.78 µM	0.595 µM	–	3.66 µM	2.9 µM	2.35 µM
